Measurements from publication PMC12505902, “Inhibitors of trehalose-6-phosphate synthase activity in fungal pathogens compromise thermal tolerance pathways” (mBio, 2025).

Columns and labels:
C. gattii (R265) = assay: MIC dose-response assay in YPD; assay type: cell-based; conditions: Cryptococcus gattii
Procedure: (§1) Fig 4 4456dh inhibits the growth of Candida and Cryptococcus species. Two-fold dose response assays were performed against (A) C. albicans at 42°C and C. auris at 39°C, (B) C. glabrata at 42°C, and (C) C. neoformans, C. deneoformans, and C. gattii at 37°C. 4456dh was administered at the concentrations indicated. Cultures were grown in YPD at the listed temperatures for 48 hours for Candida species and 72 hours for Cryptococcus species. Experimental temperatures reflect the temperatures at which the fungi experience heat stress. Left: relative growth of treated samples was calculated by averaging technical triplicates and normalizing the OD600 of each treated well to the average OD600 of the untreated WT controls, after the absorbance due to the compound was subtracted. The MIC80 values, calculated based on the OD600 values, are indicated in the white text on each heat map. Right: representative spot assays show the ability of cells to grow after exposure to 4456dh and indicate fungicidal activity of 4456dh. TEXT PRINTED IN THE PICTURE: (A) 4456dh: C. albicans 42 °C: 13 mM; C. auris 39 °C: 7 mM | (B) 4456dh: C. glabrata 42 °C: 7.8 μM | (C) 4456dh: C. neoformans 37 °C: 7 mM; C. deneoformans 37 °C: 3 mM; C. gattii 37 °C: 7 mM DOUBTS OF THE COPYIST ABOUT THIS PICTURE: 4456dh, all panels: the picture prints no measure name with the white values on the heat maps, so each value is given only with its organism and temperature
(§2) We next tested the activity of 4456dh on Cryptococcus species at 37°C.
(§3) 123 hours. […]
(§4) 126 medium. Growth was plotted as a heat map using Excel.
(§5) 127 Wild-t y pe C. neoformans strains H99, wild-type C. deneoformans JEC21 and wild- t y pe C. gattii
(§6) 128 R265 were cultured overnight in YPD (yeast-peptone- dextrose) medium at 30 °C. Growth of the
(§7) 129 overnight cultures was quantified by measuring the OD600 and corrected for the background
(§8) 130 absorbance of the medium. Antifungal potency for 4456dh was assessed by minimum inhibitory
(§9) 131 concentration (MIC) dose-response assays performed under standard Clinical and Lab Standards
(§10) 132 Institute (CLSI) conditions. A volume of 125 µL from each cell suspension was dispensed into the
(§11) 133 wells of 96-well flat-bottom microtiter plates (Corning). An additional 25 µL of 4456dh from a series
(§12) 134 of dilutions from the 157 mM stock solution prepared in water was added to each well. Following […]
(§13) 137 replicates. Growth, as determined by a reading of absorbance at 600 nm, was normalized to
(§14) 138 untreated controls and was corrected for the absorbance of 4456dh in the YPD medium. […]
(§15) 139 minimum inhibitory concentration causing 80% growth reduction, or MIC80, was determined based […]
(§16) 157 Optical density (OD600) was determined with an Infinite PRO plate reader ( Tecan). […]

C. neoformans (H99) = assay: MIC dose-response assay in YPD; assay type: cell-based; conditions: Cryptococcus neoformans
Procedure: as §1, §2, §3, §4, §5, §6, §7, §8, §9, §10, §11, §12, §13, §14, §15, §16

[1] = Supplemental Table 5, This publication

Cn1cc(-c2csc(NC(=O)Cc3ccccn3)n2)cn1 [Compound 4456dh]
MIC80 (C. gattii (R265); 37°C, YPD, 72 hours): 7 mM
MIC80 (C. gattii (R265); [1]): 2780 µg/mL
MIC80 (C. neoformans (H99); 37°C, YPD, 72 hours): 7 mM
MIC80 (C. neoformans (H99); [1]): 2780 µg/mL
